Legend:
human FXR = target: T1, human FXR (Homo sapiens, UniProt Q96RI1); assay: transient human FXR/Gal4-luciferase reporter assay; format: cell-based; settings: Gal4-hFXR reporter in HEK293 cells; read-out: HLE GAL-FXR EC50
T1 construct: expressed in transfected cells; host or cells: HEK293 cells stably carrying a 5xGal4-response-element firefly luciferase reporter, transiently transfected with the pcDNA3.1-Gal4-FXR plasmid
T1 sequence (Q96RI1 262-486 limits assumed): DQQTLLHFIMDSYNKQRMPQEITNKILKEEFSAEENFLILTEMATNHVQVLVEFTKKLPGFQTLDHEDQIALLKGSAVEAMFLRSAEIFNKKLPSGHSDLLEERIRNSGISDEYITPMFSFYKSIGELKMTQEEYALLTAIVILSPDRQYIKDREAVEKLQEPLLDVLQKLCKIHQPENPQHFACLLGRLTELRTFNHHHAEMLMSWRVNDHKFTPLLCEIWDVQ
In short: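 HEK293 cells stably carrying a 5×Gal4-response-element firefly luciferase reporter, transiently transfected with a CMV-driven Gal4 DNA-binding domain–human FXR ligand-binding domain fusion, were treated overnight at 37 °C with serially diluted compounds. Luminescence was read by Steady-Glo; DMSO background was subtracted and signal expressed as percent of the 8 μM GW-4064 response.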

Fgf15 = assay: Acute mouse in vivo assay, Fgf15 gene expression in ileum; settings: 3 mg/kg single oral dose, @ 6 h
Experimental: Acute Mouse In Vivo Assay:
Male, C57BL6/NTac mice, weighing 25-28 g, are purchased from Taconic Labs (Hudson, N.Y.) and maintained on Teklad Global 18% Protein Rodent Diet (Harlan Laboratories). After 1 week acclimation, mice are sorted into groups based upon body weight. Mice are administered a single oral dose of vehicle or experimental compound. Systemic compound exposure is evaluated in plasma derived from blood collected via the submandibular vein at 1 hour post-dose, and at study termination (6 h). At study termination, the animals are euthanized and rapidly dissected. The medial lobe of the liver is divided, with one half being homogenized and analyzed for compound exposure, and the other half saved in RNAlater (Thermo-Fisher Scientific). The ileum is also dissected and preserved in RNAlater. Tissue samples in RNAlater are homogenized with MP Biomedicals' beads. […] RNA Concentration is determined with the Nano-Drop 8000 Spectrophotometer (Thermo Fisher). […] Mouse genes analyzed include Nr0b2 (which encodes the small heterodimer partner, SHP), Abcb11 (which encodes the bile salt excretion pump, BSEP), Cyp7a1, & Cyp8b1 in liver, and Fgf15, Fabp6 (which encodes ileal bile acid binding protein, I-BABP), Slc51a (which encodes organic solute transporter alpha subunit, OSTA), and Slc51b (which encodes organic solute transporter beta subunit, OSTB) in the ileum. […]

EC50 (human FXR): 0.026 µM
Structure (SMILES): O=C(O)c1cc(C(F)(F)F)c2cc(N3CCC4(CC3)CC(Cc3c(-c5ccccc5C(F)(F)F)noc3C3CC3)C4)ccc2n1 [Example 4, 6-(2-((5-Cyclopropyl-3-(2-(trifluoromethyl)phenyl)isoxazol-4-yl)methyl)-7-azaspiro[3.5]nonan-7-yl)-4-(trifluoromethyl)quinoline-2-carboxylic acid]
Fgf15 expression, fold increase relative to vehicle control (Fgf15): +24 x
